Tests used:
Type in all cases: in vivo
Zymoseptoria tritici = assay: Leaf blotch of wheat (SEPTTR) disease control on wheat seedlings; conditions: for SEPTTR 1DP, LV activity at 125.1 g/H (% Control rating) / SEPTTR 3DC, LV activity at 125.1 g/H (% Control rating) / SEPTTR 1DP disease control rating, LV activity at 125.1 g/H / SEPTTR 3DC disease control rating, LV activity at 125.1 g/H: low volume application; for SEPTTR 1DP disease control rating, LV activity at 125.1 g/H: 1 day protectant; for SEPTTR 3DC disease control rating, LV activity at 125.1 g/H: 3 day curative
Puccinia triticina = assay: Wheat brown rust (PUCCRT) disease control on wheat seedlings; conditions: for PUCCRT 1DP, LV activity at 125.1 g/H (% Control rating) / PUCCRT 3DC, LV activity at 125.1 g/H (% Control rating) / PUCCRT 1DP disease control rating, LV activity at 125.1 g/H / PUCCRT 3DC disease control rating, LV activity at 125.1 g/H: low volume application; for PUCCRT 1DP disease control rating, LV activity at 125.1 g/H: 1 day protectant; for PUCCRT 3DC disease control rating, LV activity at 125.1 g/H: 3 day curative
Phakopsora pachyrhizi = assay: Asian soybean rust (PHAKPA) disease control; parameters: key: A: > 80; B: ≤ 80; C: Not Tested; D: No Activity Observed in the Reported Assay; conditions: 25 ppm; for PHAKPA disease control, 1DP: 1 Day Protectant; for PHAKPA disease control, 3DC: 3 Day Curative

Structure (SMILES)	SEPTTR 1DP, LV activity at 125.1 g/H (% Control rating) (Zymoseptoria tritici; 1 Day Protectant)	SEPTTR 3DC, LV activity at 125.1 g/H (% Control rating) (Zymoseptoria tritici; 3 Day Curative)	PUCCRT 1DP, LV activity at 125.1 g/H (% Control rating) (Puccinia triticina; 1 Day Protectant)	PUCCRT 3DC, LV activity at 125.1 g/H (% Control rating) (Puccinia triticina; 3 Day Curative)	PHAKPA disease control, 1DP (Phakopsora pachyrhizi)	PHAKPA disease control, 3DC (Phakopsora pachyrhizi)	SEPTTR 1DP disease control rating, LV activity at 125.1 g/H (Zymoseptoria tritici)	SEPTTR 3DC disease control rating, LV activity at 125.1 g/H (Zymoseptoria tritici)	PUCCRT 1DP disease control rating, LV activity at 125.1 g/H (Puccinia triticina)	PUCCRT 3DC disease control rating, LV activity at 125.1 g/H (Puccinia triticina)	SEPTTR 1DP disease control rating, HV activity (Zymoseptoria tritici; HV application at 100 ppm, 1 Day Protectant, wheat leaf blotch)	SEPTTR 3DC disease control rating, HV activity (Zymoseptoria tritici; HV application at 100 ppm, 3 Day Curative, wheat leaf blotch)	PUCCRT 1DP disease control rating, HV activity (Puccinia triticina; HV application at 100 ppm, 1 Day Protectant, wheat brown rust)	PUCCRT 3DC disease control rating, HV activity (Puccinia triticina; HV application at 100 ppm, 3 Day Curative, wheat brown rust)
COc1ccnc(C(=O)N[C@@H](C)C(=O)O[C@@H](C)[C@H](Oc2ccc(F)cc2)C(C)C)c1OCOC(C)=O [Cmpd 615]	A (> 80)	A (> 80)	A (> 80)	A (> 80)	A (> 80)	B (≤ 80)								
COc1ccnc(C(=O)N[C@@H](C)C(=O)O[C@@H](C)[C@@H](Cc2ccccc2)Oc2ccccc2)c1OCOC(C)=O [Cmpd 550]	A (> 80)	A (> 80)	A (> 80)	A (> 80)	B (≤ 80)	B (≤ 80)								
CCC(CC)[C@@H](Oc1ccccc1Cl)[C@H](C)OC(=O)[C@H](C)NC(=O)c1nccc(OC)c1OC(C)=O [Cmpd 604]	B (≤ 80)	A (> 80)	A (> 80)	A (> 80)	B (≤ 80)	B (≤ 80)								
CCC[C@@H](Oc1ccccc1)[C@H](C)OC(=O)[C@H](C)NC(=O)c1nccc(OC)c1OC(C)=O [Cmpd 696]					A (> 80)	A (> 80)	A (> 80)	A (> 80)	A (> 80)	A (> 80)				
COc1ccnc(C(=O)NC(C)C(=O)OC(C)C(Oc2cccc(F)c2)C2CCCC2)c1OCOC(C)=O (stereo not drawn) [Cmpd 909]					A (> 80)	B (≤ 80)	A (> 80)	A (> 80)	A (> 80)	A (> 80)				
COc1ccnc(C(=O)N[C@@H](C)C(=O)O[C@@H](C)[C@H](Oc2ccccc2)C(C)C)c1O [Cmpd 304]					D	B (≤ 80)					A (> 80)	A (> 80)	A (> 80)	A (> 80)
CCC(CC)[C@H](Oc1ccc(Cl)cc1)[C@H](C)OC(=O)[C@H](C)NC(=O)c1nccc(OC)c1OCOC(C)=O [Cmpd 669]					A (> 80)	B (≤ 80)	A (> 80)	A (> 80)	A (> 80)	A (> 80)				
COc1ccnc(C(=O)N[C@@H](C)C(=O)O[C@@H](C)[C@H](OCC2CC2)c2cccc(-c3ccccc3)c2)c1OCOC(C)=O [Cmpd 873]					A (> 80)	B (≤ 80)	B (≤ 80)	A (> 80)	A (> 80)	A (> 80)				
COc1ccnc(C(=O)NC(C)C(=O)OC(C)(C)C(Oc2ccccc2)C(C)C)c1OCOC(C)=O (mixture of isomers) [Cmpd 904]					A (> 80)	B (≤ 80)	B (≤ 80)	A (> 80)	A (> 80)	A (> 80)				

Source: US20180000085A1, “USE OF PICOLINAMIDE COMPOUNDS WITH FUNGICIDAL ACTIVITY” (DOW AGROSCIENCES LLC, priority 2014, published 2018)
